Source: US10632122B2, “Compositions and methods for treating toxoplasmosis, cryptosporidiosis and other apicomplexan protozoan related diseases” (University of Washington, priority 2015, dated 2020)

What was measured:
[1] = Rat PK following IV and PO dosing; details: PO vs IV, rats
N. caninum = assay: Mice experimentally infected with N. caninum; set-up: species or system Balb/c mice; details: mouse, in vivo

Row | bioavailability [1] | SMILES | treatment of N. caninum infected mice (N. caninum)
1 | essentially complete bioavailability | CC(C)Cn1nc(-c2ccc3cc(OCC(C)(C)O)ccc3c2)c2c(N)ncnc21 [Example 33, 1-(6-(4-amino-1-isobutyl-1H-pyrazolo[3,4-d]pyrimidin-3-yl)naphthalen-2-yloxy)-2-methylpropan-2-ol] | –
2 | – | CCOc1ccc2cc(-c3nn(CC4CCN(C)CC4)c4ncnc(N)c34)ccc2c1 [Compound 150] | treats infected mice and rids of N. caninum infection in brain and fetuses
